From patent publication US20250127772A1, “SPECIFIC TETRADENTATE COPPER CHELATORS FOR THE TREATMENT OF WILSON'S DISEASE” (GUANGDONG UNIVERSITY OF TECHNOLOGY, priority 2023, published 2025)
Several values for one entry are separate records, joined by “and”; a condition that tells them apart may be missing. Equal values may be shown once.

What was measured:
[1] = oral administration in adults, WD treatment; cited from earlier work
[2] = test system: homozygous toxic-milk mouse model (TX model); format: in vivo; conditions: TX mice
Text: The selected drug-candidate TDMQ20 has been evaluated on the homozygous toxic-milk mouse model (TX model), a regular murine model of Wilson disease, suitable for evaluation of drug-candidates (for a review, see E. Reed et al., J. Neurochem., 146, 356-373, 2018). TX mice are bearing a naturally occurring point mutation on ATP7B resulting in a methionine changed for a valine, that causes the loss of copper transportation by this protein. C57BL/6 mice have no mutation on ATP7B and were used as control mice in the evaluation of TDMQ20. TX mice were provided by Sun Yat-Sen University (Guangzhou) and C57BL/6 mice by the Guangdong experimental animal center (Guangzhou) and all experiments were performed according to protocols approved by the Welfare Laboratory Animals Committee of the Guangdong University of Technology (approval n° GDUTXS2022083 dated on 3 Aug. 2022), in the framework of the 3 Rs principle.
[…] TX mice (WD) and 8-week-old C57BL/6 mice (Control) were used. TX mice (as WD, TDMQ-L, TDMQ-M, TDMQ-H groups, respectively) received the drug TDMQ20 by intragastric gavage twice a day for 14 consecutive days (at 0, 12.5, 25.0, 50.0 mg/kg in NaCl 0.9%). On the same schedule, C57BL/6 mice (as control group) received NaCl 0.9%. Treatment of WD mice with DPA (200 mg/kg) was used as comparison (DPA group). Six groups of 6 mice were used.
At the end of the treatment period, mice (10-week old) were placed in metabolic cages for 12 h in order to collect urine and feces. At the end of this 12 h-period, mice were anesthetized using 2.5% Avertin diluted in 0.9% NaCl at a dose of […] body weight and sacrificed. Cardiac blood was collected and left at room temperature for 30 minutes before centrifugation at 4° C. at 3000 r/min for 10 minutes to obtain serum samples. During this 30-min period, liver, kidney, brain and serum were also collected. Copper concentrations in urine and feces, serum, liver, kidney and brain were determined by inductively coupled plasma mass spectrometry (ICP-MS). Data analysis was carried out using SPSS Statistics software (version 26). Data are provided as mean values±standard error of the mean (SEM). Statistical analyses were performed using one-way ANOVA for liver, feces and urine, and by non-parametric test for serum, kidney, and brain. Differences with p>0.05 were considered as no significance (ns), * p<0.05, ** p<0.01, and *** p<0.001, n=6. Graph presentations were drawn with Prism GraphPad 8.0.2.

[3] = DPA 200 mg/kg/day gavage 14 days, mean of 6 mice ± SEM

| Compound | adverse effects observed with time [1] | copper concentration in serum versus untreated WD mice ([2]; DPA 200 mg/kg/day) | Cu content Brain [2, 3] | Cu content Feces [2, 3] | Cu content Kidney [2, 3] | Cu content Liver [2, 3] | Cu content Serum [2, 3] | Cu content Urine [2, 3] |
| --- | --- | --- | --- | --- | --- | --- | --- | --- |
| NCCNCCNCCN [trientine, triethylene-tetramine] | bone marrow depression, anemia, skin rash and hemorrhagic gastritis |  |  |  |  |  |  |  |
| CC(C)(S)[C@@H](N)C(=O)O [DPA, D-penicillamine, reference compound] | nephrotoxicity, aplasia, retinitis and neurological deterioration | not significantly higher | 3.7 ± 0.3 mg/kg | 96 ± 7 mg/kg | 5.4 ± 0.3 mg/kg | 265 mg/kg and 265 ± 9 mg/kg | 0.39 ± 0.03 mg/L | 2.8 ± 0.2 mg/L |
